Our source for the Activity values is ChEMBL document CHEMBL4304811, “Development of a Water-Soluble Indolylmaleimide Derivative IM-93 Showing Dual Inhibition of Ferroptosis and NETosis” (ACS Med Chem Lett, 2019).

Test [1] concerns the target Casein kinase I isoform alpha (Homo sapiens) (UniProt P48729). As to the kind of experiment: Binding affinity to wild-type human partial length CSNK1A1 (M1 to L450 residues) expressed in mammalian expression system assessed as residual binding level at 10 uM by Kinomescan method relative to control.
For test [2], the target named is Serine/threonine-protein kinase SIK2 (Homo sapiens) (UniProt Q9H0K1). As to the kind of experiment: Binding affinity to wild-type human full length SIK2 (M1 to N926 residues) expressed in bacterial expression system assessed as residual binding level at 10 uM by Kinomescan method relative to control.
Test [3] concerns the target Serine/threonine-protein kinase Nek11 (Homo sapiens) (UniProt Q8NG66). As to the kind of experiment: Binding affinity to wild-type human partial length NEK11 (M1 to E313 residues) expressed in mammalian expression system assessed as residual binding level at 10 uM by Kinomescan method relative to control.
Test [4] has as its target Death-associated protein kinase 1 (Homo sapiens) (UniProt P53355). As to the kind of experiment: Binding affinity to wild-type human partial length DAPK1 (M1 to F296 residues) expressed in bacterial expression system assessed as residual binding level at 10 uM by Kinomescan method relative to control.
The target of test [5] is Protein kinase C iota type (Homo sapiens) (UniProt P41743). As to the kind of experiment: Binding affinity to wild-type human partial length PRKCI (H215 to V587 residues) expressed in mammalian expression system assessed as residual binding level at 10 uM by Kinomescan method relative to control.
Test [6] deals with Serine/threonine-protein kinase 17B (Homo sapiens) (UniProt O94768). The test can be described thus: Binding affinity to wild-type human full length DRAK2 (M1 to C372 residues) expressed in bacterial expression system assessed as residual binding level at 10 uM by Kinomescan method relative to control.
The target in test [7] is Cyclin-dependent kinase 11A (Homo sapiens) (UniProt Q9UQ88). As to the kind of experiment: Binding affinity to wild-type human partial length CDC2L2 (D391 to K730 residues) expressed in bacterial expression system assessed as residual binding level at 10 uM by Kinomescan method relative to control.
Test [8] deals with Activated CDC42 kinase 1 (Homo sapiens) (UniProt Q07912). As to the kind of experiment: Binding affinity to wild-type human partial length TNK2 (S159 to D474 residues) expressed in bacterial expression system assessed as residual binding level at 10 uM by Kinomescan method relative to control.
The subject of test [9] is ALK tyrosine kinase receptor (Homo sapiens), Q9UM73 [C1156Y]. As to the kind of experiment: Binding affinity to […] human partial length ALK C1156Y mutant (I1088 to E1409 residues) expressed in mammalian expression system assessed as residual binding level at 10 uM by Kinomescan method relative to control.
Test [10] concerns the target Mitogen-activated protein kinase kinase kinase 15 (Homo sapiens) (UniProt Q6ZN16). As to the kind of experiment: Binding affinity to wild-type human partial length MAP3K15 (T625 to L932 residues) expressed in mammalian expression system assessed as residual binding level at 10 uM by Kinomescan method relative to control.
Test [11] addresses Tyrosine-protein kinase JAK1 (Homo sapiens) (UniProt P23458). As to the kind of experiment: Binding affinity to wild-type human partial length JAK1 JH2 pseudokinase domain (R537 to D855 residues) expressed in mammalian expression system assessed as residual binding level at 10 uM by Kinomescan method relative to control.
Test [12] has as its target Ephrin type-A receptor 4 (Homo sapiens) (UniProt P54764). The test can be described thus: Binding affinity to wild-type human partial length EPHA4 (T601 to R897 residues) expressed in bacterial expression system assessed as residual binding level at 10 uM by Kinomescan method relative to control.
Test [13] deals with Bone morphogenetic protein receptor type-2 (Homo sapiens) (UniProt Q13873). As to the kind of experiment: Binding affinity to wild-type human partial length BMPR2 (R179 to Q526 residues) expressed in mammalian expression system assessed as residual binding level at 10 uM by Kinomescan method relative to control.
Test [14] deals with 5'-AMP-activated protein kinase catalytic subunit alpha-2 (Homo sapiens) (UniProt P54646). As to the kind of experiment: Binding affinity to wild-type human partial length AMPK alpha2 (M1 to E306 residues) expressed in bacterial expression system assessed as residual binding level at 10 uM by Kinomescan method relative to control.
Test [15] deals with Tyrosine-protein kinase CSK (Homo sapiens) (UniProt P41240). The test can be described thus: Binding affinity to wild-type human full length CSK (M1 to L450 residues) expressed in bacterial expression system assessed as residual binding level at 10 uM by Kinomescan method relative to control.
Test [16] addresses Leucine-rich repeat serine/threonine-protein kinase 2 (Homo sapiens) (UniProt Q5S007). The test can be described thus: Binding affinity to wild-type human partial length LRRK2 (H970 to E2527 residues) expressed in mammalian expression system assessed as residual binding level at 10 uM by Kinomescan method relative to control.
The target of test [17] is Cyclin-dependent kinase 18 (Homo sapiens) (UniProt Q07002). The test can be described thus: Binding affinity to wild-type human full length PCTK3 (M3 to F474 residues) expressed in bacterial expression system assessed as residual binding level at 10 uM by Kinomescan method relative to control.
Test [18] addresses Casein kinase I isoform alpha-like (Homo sapiens) (UniProt Q8N752). The test can be described thus: Binding affinity to wild-type human full length CSNK1A1L (M1 to N337 residues) expressed in bacterial expression system assessed as residual binding level at 10 uM by Kinomescan method relative to control.
The target in test [19] is Serine/threonine-protein kinase LATS2 (Homo sapiens) (UniProt Q9NRM7). The test can be described thus: Binding affinity to wild-type human partial length LATS2 (Q641 to V1088 residues) expressed in mammalian expression system assessed as residual binding level at 10 uM by Kinomescan method relative to control.
Test [20] concerns the target CDK4/Cyclin D3 (Homo sapiens) (UniProt P11802+P30281). As to the kind of experiment: Binding affinity to wild-type human full length CDK4/cyclinD3 (M1 to E303 residues) expressed in mammalian expression system assessed as residual binding level at 10 uM by Kinomescan method relative to control.
Test [21] deals with Dual specificity tyrosine-phosphorylation-regulated kinase 1A (Homo sapiens) (UniProt Q13627). As to the kind of experiment: Binding affinity to wild-type human partial length DYRK1A (H129 to S509 residues) expressed in mammalian expression system assessed as residual binding level at 10 uM by Kinomescan method relative to control.
Test [22] concerns Phosphatidylinositol 4,5-bisphosphate 3-kinase catalytic subunit alpha isoform (Homo sapiens), P42336 [M1043I]. The test can be described thus: Binding affinity to human partial length PIK3CA M1043I mutant (R108 to N1068 residues) expressed in mammalian expression system assessed as residual binding level at 10 uM by Kinomescan method relative to control.
Test [23] deals with High affinity nerve growth factor receptor (Homo sapiens) (UniProt P04629). The test can be described thus: Binding affinity to wild-type human partial length TRKA (G475 to G790 residues) expressed in mammalian expression system assessed as residual binding level at 10 uM by Kinomescan method relative to control.
Test [24] has as its target Casein kinase I isoform gamma-1 (Homo sapiens) (UniProt Q9HCP0). The test can be described thus: Binding affinity to wild-type human partial length CSNK1G1 (T15 to S353 residues) expressed in bacterial expression system assessed as residual binding level at 10 uM by Kinomescan method relative to control.

Chain of Casein kinase I isoform alpha-like (Homo sapiens) (Q8N752 whole entry, the tested form may be a part, canonical isoform): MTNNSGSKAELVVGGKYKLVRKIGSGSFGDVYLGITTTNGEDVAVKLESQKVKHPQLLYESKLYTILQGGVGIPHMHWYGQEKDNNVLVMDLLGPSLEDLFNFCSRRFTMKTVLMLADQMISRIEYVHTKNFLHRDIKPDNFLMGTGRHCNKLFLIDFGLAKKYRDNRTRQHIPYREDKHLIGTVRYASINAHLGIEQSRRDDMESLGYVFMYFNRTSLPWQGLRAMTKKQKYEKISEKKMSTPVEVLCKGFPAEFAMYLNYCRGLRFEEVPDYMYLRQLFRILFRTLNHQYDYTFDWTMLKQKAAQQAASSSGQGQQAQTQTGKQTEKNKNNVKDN
Chain of Serine/threonine-protein kinase LATS2 (Homo sapiens) (Q9NRM7 whole entry, the tested form may be a part): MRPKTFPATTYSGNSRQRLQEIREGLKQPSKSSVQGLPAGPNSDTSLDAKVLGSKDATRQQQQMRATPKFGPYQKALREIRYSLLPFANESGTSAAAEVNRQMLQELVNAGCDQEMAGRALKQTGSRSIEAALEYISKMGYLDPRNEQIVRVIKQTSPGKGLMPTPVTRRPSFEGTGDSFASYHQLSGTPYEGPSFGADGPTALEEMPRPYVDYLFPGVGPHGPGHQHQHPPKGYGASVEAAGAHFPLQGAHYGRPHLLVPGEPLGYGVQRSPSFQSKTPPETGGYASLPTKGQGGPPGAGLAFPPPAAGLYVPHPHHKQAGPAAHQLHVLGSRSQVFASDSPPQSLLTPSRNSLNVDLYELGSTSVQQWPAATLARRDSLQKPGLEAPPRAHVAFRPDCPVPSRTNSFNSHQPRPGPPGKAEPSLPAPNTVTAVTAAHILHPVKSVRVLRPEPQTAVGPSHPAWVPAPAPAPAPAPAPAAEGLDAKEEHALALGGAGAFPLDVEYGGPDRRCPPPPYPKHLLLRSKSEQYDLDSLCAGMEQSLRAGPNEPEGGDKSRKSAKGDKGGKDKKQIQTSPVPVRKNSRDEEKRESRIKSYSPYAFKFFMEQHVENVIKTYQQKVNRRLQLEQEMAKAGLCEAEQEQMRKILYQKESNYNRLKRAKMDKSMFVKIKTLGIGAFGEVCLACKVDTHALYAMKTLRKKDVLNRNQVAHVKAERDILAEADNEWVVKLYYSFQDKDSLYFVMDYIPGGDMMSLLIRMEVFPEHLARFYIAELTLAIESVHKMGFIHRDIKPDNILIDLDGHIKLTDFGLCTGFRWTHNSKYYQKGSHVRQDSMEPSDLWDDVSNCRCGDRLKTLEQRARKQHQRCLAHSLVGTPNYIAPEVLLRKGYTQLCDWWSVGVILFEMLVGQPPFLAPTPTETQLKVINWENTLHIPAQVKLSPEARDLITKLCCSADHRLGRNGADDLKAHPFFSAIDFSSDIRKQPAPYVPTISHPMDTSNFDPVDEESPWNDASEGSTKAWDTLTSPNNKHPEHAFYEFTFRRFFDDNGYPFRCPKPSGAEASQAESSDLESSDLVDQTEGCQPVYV
Chain of Serine/threonine-protein kinase 17B (Homo sapiens) (O94768 whole entry, the tested form may be a part): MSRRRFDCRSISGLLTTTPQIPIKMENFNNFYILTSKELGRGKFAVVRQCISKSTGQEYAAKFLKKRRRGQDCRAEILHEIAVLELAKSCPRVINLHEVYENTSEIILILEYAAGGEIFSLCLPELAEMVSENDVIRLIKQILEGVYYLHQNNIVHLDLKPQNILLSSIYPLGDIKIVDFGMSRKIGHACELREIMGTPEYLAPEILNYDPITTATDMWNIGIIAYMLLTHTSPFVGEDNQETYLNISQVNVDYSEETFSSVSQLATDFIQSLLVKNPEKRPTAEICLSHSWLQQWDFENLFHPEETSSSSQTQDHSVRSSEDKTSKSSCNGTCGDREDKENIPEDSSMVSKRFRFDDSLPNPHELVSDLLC
Chain of Cyclin-dependent kinase 11A (Homo sapiens) (Q9UQ88 whole entry, the tested form may be a part): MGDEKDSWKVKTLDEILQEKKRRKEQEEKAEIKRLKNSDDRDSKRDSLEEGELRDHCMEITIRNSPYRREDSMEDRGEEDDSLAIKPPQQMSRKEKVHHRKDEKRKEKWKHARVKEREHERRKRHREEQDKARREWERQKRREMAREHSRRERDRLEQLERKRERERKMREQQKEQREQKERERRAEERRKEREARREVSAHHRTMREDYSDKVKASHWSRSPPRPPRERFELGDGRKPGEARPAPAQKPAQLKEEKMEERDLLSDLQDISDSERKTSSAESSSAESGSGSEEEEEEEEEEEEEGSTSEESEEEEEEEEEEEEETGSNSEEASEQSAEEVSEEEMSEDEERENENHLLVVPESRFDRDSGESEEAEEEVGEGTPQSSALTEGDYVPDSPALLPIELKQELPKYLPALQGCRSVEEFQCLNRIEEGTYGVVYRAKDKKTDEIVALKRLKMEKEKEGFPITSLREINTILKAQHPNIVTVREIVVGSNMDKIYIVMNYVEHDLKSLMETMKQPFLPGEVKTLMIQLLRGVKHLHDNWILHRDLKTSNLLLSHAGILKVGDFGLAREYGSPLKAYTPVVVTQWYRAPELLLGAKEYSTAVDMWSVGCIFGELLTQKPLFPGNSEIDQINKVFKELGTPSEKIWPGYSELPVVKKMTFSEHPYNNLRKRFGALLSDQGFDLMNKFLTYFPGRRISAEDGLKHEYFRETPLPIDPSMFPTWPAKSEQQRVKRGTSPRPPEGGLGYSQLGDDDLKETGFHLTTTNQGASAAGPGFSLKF
Chain of Tyrosine-protein kinase JAK1 (Homo sapiens) (P23458 whole entry, the tested form may be a part): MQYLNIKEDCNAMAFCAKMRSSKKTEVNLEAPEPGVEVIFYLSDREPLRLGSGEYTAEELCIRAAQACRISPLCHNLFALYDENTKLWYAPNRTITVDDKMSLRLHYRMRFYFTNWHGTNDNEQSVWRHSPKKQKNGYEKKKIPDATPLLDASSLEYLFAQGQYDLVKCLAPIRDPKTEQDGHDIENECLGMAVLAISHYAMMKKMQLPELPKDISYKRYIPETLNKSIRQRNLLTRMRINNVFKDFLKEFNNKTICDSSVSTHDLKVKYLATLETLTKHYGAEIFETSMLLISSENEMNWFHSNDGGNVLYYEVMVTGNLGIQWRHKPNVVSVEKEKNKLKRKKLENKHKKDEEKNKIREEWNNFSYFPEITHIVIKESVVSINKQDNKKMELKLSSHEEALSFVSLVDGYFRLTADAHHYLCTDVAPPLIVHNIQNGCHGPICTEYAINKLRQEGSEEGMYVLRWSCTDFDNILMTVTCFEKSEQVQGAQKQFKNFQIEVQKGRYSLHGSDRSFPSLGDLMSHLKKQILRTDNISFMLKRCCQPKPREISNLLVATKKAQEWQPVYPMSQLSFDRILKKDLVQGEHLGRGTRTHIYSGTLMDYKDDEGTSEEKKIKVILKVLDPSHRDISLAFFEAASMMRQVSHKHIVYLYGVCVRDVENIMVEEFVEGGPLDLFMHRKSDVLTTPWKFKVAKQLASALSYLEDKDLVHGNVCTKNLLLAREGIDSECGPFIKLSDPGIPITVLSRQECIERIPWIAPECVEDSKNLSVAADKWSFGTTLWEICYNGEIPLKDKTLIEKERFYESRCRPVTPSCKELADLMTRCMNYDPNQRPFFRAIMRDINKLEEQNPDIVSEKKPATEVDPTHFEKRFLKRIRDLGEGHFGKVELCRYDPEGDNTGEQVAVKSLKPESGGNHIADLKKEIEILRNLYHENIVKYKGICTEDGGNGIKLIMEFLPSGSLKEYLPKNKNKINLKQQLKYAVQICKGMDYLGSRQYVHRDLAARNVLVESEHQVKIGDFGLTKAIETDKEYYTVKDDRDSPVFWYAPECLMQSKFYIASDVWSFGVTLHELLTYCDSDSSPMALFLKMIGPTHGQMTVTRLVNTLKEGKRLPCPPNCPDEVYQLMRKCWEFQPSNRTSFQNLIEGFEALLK
Chain of Bone morphogenetic protein receptor type-2 (Homo sapiens) (Q13873 whole entry, the tested form may be a part): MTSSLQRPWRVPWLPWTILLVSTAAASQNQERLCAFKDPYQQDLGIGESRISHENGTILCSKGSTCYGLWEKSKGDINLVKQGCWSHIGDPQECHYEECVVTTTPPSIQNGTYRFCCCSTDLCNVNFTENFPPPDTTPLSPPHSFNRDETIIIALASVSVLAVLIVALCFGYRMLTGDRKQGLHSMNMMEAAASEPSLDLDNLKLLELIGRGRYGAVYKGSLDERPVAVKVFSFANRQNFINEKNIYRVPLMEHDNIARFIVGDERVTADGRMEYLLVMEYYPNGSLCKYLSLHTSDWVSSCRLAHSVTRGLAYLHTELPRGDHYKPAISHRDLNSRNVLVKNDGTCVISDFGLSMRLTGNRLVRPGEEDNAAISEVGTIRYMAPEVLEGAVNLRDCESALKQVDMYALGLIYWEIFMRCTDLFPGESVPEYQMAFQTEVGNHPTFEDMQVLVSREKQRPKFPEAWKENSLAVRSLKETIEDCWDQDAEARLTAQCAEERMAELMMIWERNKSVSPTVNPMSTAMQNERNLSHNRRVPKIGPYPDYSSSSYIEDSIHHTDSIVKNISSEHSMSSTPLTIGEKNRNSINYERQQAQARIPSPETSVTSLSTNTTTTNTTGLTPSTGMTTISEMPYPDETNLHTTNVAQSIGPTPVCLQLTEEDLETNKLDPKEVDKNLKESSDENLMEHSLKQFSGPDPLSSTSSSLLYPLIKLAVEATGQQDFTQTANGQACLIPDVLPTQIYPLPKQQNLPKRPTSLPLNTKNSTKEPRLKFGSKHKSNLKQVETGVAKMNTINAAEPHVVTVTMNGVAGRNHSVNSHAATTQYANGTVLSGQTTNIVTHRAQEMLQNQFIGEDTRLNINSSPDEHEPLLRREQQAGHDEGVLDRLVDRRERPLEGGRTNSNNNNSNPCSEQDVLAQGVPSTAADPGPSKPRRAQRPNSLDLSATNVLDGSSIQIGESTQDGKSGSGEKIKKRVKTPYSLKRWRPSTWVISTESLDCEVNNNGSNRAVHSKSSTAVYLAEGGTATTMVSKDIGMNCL

For the compound `CC(C)N1C(=O)C(NCCCN(C)C)=C(c2cn(C)c3ccccc23)C1=O.Cl`, the Activity in test [1] was 88%; in test [2], 100%; in [3] it was 100%; in [4], 100%; in test [5] it was 88%; in [6] it was 91%. Also, the Activity came out at 96% in [7]; 100% in test [8]; 90% in test [9]; 94% in test [10]; 88% in test [11]; 100% in test [12]. Also, the Activity in test [13] worked out at 100%; in test [14], 89%; in test [15], 96%; in test [16], 94%; in test [17], 99%; in test [18] it was 99%. For the same compound, the Activity came out at 88% in test [19]; 93% in test [20]; 87% in test [21]; 67% in test [22]; 100% in test [23]; 89% in test [24].
